The results in this text go back to patent US7998984B2, “2-pyridone derivatives for the treatment of disease or condition in which inhibition of neutrophil elastase activity is beneficial” (AstraZeneca AB, priority 2006, dated 2011).

The target of the assay is T1, Human Neutrophil Elastase (HNE) (Homo sapiens, UniProt P08246).
T1 construct: Human Neutrophil Elastase (HNE) purified from serum; purchased Calbiochem 324681; host or cells: purified from human serum (so in the source)
T1 sequence (P08246 30-247 limits assumed): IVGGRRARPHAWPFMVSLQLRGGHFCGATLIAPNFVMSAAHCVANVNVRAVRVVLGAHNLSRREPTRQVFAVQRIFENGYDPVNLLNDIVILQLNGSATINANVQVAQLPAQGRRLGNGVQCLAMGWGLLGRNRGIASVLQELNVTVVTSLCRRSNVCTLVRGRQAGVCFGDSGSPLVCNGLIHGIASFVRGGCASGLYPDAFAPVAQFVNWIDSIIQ
The assay is described as follows: Human Neutrophil Elastase Quenched-FRET Assay. Type of assay: biochemical. The note with it: HNE 1.7 nM, substrate MeOSuc-AAPV-AMC 100 μM, 15 min pre-incubation, 30 min incubation at room temperature; read-out: Inhibition of Human Neutrophil Elastase IC50. How it is done: Human Neutrophil Elastase Quenched-FRET Assay
HNE was stored in 50 mM sodium acetate (NaOAc), 200 mM sodium chloride (NaCl), pH 5.5 with added 30% glycerol at −20° C. […] The substrate was stored in dimethyl sulphoxide (DMSO) at −20° C. […] The assay buffer constitution was: 100 mM Tris(hydroxymethyl)aminomethane (TRIS) (pH 7.5) and 500 mM NaCl. The enzyme and the compounds were incubated at room temperature for 15 minutes. Then 30 μl substrate in assay buffer was added. The assay was incubated for 30 minutes at room temperature. […] The assay was then stopped by adding 60 μl stop solution (140 mM acetic acid, 200 mM sodium monochloroacetate, 60 mM sodium acetate, pH 4.3).

The IC50 is the concentration that inhibits the measured activity by half. Take `CNC(=O)c1cc(-c2ccnn2-c2ccc(C#N)cc2)c(C)n(-c2ccc(F)c(Cl)c2)c1=O` [Example 6, 1-(3-Chloro-4-fluorophenyl)-5-[1-(4-cyanophenyl)-1H-pyrazol-5-yl]-N,6-dimethyl-2-oxo-1,2-dihydropyridine-3-carboxamide]: the IC50 was found to be 0.93 nM. The figure for `CNC(=O)c1cc(-c2ocnc2-c2ccc(Cl)cc2)c(C)n(-c2cccc(C(F)(F)F)c2)c1=O` [Example 4, 5-[4-(4-Chlorophenyl)-1,3-oxazol-5-yl]-N,6-dimethyl-2-oxo-1-[3-(trifluoromethyl)phenyl]-1,2-dihydropyridine-3-carboxamide] is 1.6 nM; for `CNC(=O)c1cc(-c2nc(N)sc2-c2ccc(Cl)cc2)c(C)n(-c2cccc(C(F)(F)F)c2)c1=O` [Example 3, 5-[2-Amino-5-(4-chlorophenyl)-1,3-thiazol-4-yl]-N,6-dimethyl-2-oxo-1-[3-(trifluoromethyl)-phenyl]-1,2-dihydropyridine-3-carboxamide] it is 0.26 nM; for `CNC(=O)c1cc(-c2nc(N)sc2-c2ccc(C#N)cc2)c(C)n(-c2cccc(C(F)(F)F)c2)c1=O` [Example 5, 5-[2-Amino-5-(4-cyanophenyl)-1,3-thiazol-4-yl]-N,6-dimethyl-2-oxo-1-[3-(trifluoromethyl)phenyl]-1,2-dihydropyridine-3-carboxamide] it is 0.26 nM.
